# Target: T1, ENT1 (Homo sapiens, UniProt Q99808)
# T1 construct: expressed in transfected cells
# T1 sequence (Q99808 1-456): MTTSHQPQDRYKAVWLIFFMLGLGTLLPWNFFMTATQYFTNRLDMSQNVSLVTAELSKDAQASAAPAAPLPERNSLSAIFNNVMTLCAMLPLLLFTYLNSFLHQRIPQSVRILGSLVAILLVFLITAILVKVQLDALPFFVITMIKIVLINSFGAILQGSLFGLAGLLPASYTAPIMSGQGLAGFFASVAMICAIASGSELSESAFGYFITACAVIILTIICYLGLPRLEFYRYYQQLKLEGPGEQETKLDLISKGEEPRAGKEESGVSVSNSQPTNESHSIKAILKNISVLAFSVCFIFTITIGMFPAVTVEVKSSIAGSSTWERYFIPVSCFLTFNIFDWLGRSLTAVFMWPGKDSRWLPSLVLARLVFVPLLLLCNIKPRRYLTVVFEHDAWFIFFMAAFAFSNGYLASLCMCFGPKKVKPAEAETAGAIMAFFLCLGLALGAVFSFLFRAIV
# Assay: Wash-out reversibility of [3H]uridine uptake inhibition in PK15NTD/ENT1 cells
# Assay type: cell-based
# Settings: 50 µM, incubation 1–60 min, washed five times
# Method: To determine whether the inhibitory effects of compound 3c were reversible or irreversible, PK15NTD/ENT1 and PK15NTD/ENT2 cells were incubated with 50 µM of compound 3c for different time periods (1–60 min). The cells were then washed five times with buffer. After wash-out for every single time [^3H]uridine uptake was measured. […] The longer the incubation time with compound 3c, the more difficult it was to wash-out the inhibitory effects of compound 3c.
# FIGURE 6 Reversibility of the inhibitory effects of compound 3c on ENT1 and ENT2 (A) PK15NTD/ENT1 and (B) PK15NTD/ENT2 cells were incubated with 50 μM of compound 3c or a vehicle (0.5% DMSO, as a control) for different time (0–60 min) The cells were then washed five times. After wash-out for every single time [^3H]uridine uptake (1 μM, 2 μCi/ml) was measured. Data are presented as mean ± SE of three experiments. ^* p < 0.05 compared with the fifth wash.
structure (smiles),measurement,value
Cc1cccc(Nc2nc(N)nc(CN3CCN(c4ccc(F)cc4)CC3)n2)c1 [Compound 3c],reversibility of inhibitory effect on ENT1 by washing,only partially reversed by washing

# Reference: article PMC8899516, “Structure-Activity Relationship Studies of 4-((4-(2-fluorophenyl)piperazin-1-yl)methyl)-6-imino-N-(naphthalen-2-yl)-1,3,5-triazin-2-amine (FPMINT) Analogues as Inhibitors of Human Equilibrative Nucleoside Transporters” (Frontiers in Pharmacology, 2022)
